In patent US20210015134A1, “CONSUMABLES” (Givaudan S.A., priority 2006, published 2021):

Key:
Format in all cases: in vivo
[1] = test system: sweet sensitive panelists; assay: Paired comparison of sweetness enhancers in water versus sucrose (Example 4, modified)
Description: Paired Comparisons of Sweetness Enhancers and Mixtures Thereof in Water and 7% Sucrose
Samples of sweetness enhancers were prepared in water or 7% sucrose. One, two or three sweetness enhancers were used in a sample. All samples were presented to panelists at ambient temperature. The sensory evaluation was conducted using a paired comparison method. […] Samples were paired randomly and presented in unidentifiable pairs of two (left and right) to the panelists in random order. The sample on the left was tasted first, followed by rinsing the mouth with water, then tasting the sample on the right. Once completing the sequence, each panelist ranked the pair of samples for sweetness then evaluated samples with respect to one another with the following descriptors (in ascending order): […]

[2] = test system: sweet sensitive panelists; assay: Ranking test, near threshold sweetness isointensity of enhancer in water (Example 3b)
Description: The sensory evaluation was conducted using a ranking method. Samples at ambient temperature were randomly presented in 15 ml blind aliquots (unidentifiable by panelists). […] After tasting each sample, the mouth was rinsed thoroughly with water at ambient temperature prior to tasting the next sample. […] They were asked to rank the samples from low to high with respect to perceived sweet taste.

[3] = test system: sweet sensitive panelists; assay: Comparative sensory evaluation of sweetness enhancers in sweetener solution or water (Example 1)
Description: Comparative sensory evaluation of sweetness enhancers in 2 or 7% sucrose
The test samples contained the potential sweetness enhancers in 0% sucrose (water), 2% sucrose, or 7% sucrose, and control samples of 0%, 2% and 7% sucrose without any additive. The sensory evaluations were conducted as follows. All samples were presented at ambient temperature in 15 ml aliquots to panels consisting of 5-9 sweet sensitive subjects of varying sweet sensitivity. After tasting each sample, the mouth was rinsed thoroughly with water at ambient temperature prior to tasting the next sample. The sucrose positive control (2% or 7%) was presented first and served as the sweetness reference to which all sweetness enhancer/sucrose combinations were directly compared.
One tasting sequence included tasting the sucrose control first, rinsing with water, tasting the sweetness enhancer/sucrose sample, rinsing with water followed by tasting the sucrose control again. Once the sequence was completed, each panelist chose the sample which was sweeter and evaluated the sweetness of each sample relative to one another.
In a second tasting sequence, this same procedure was followed for the water negative control versus the sweetness enhancer/water samples to determine the sweet taste due to the sweetness enhancer itself at each tested concentration.
Panelists evaluated the sweetness of the sweetness enhancer in water for each concentration. For their evaluation, panelists were allowed to compare any perceived sweetness of the sweetness enhancer to the 2% or 7% sucrose control to determine the relative intensity of sweetness. Mild sweet taste corresponds to the taste of 2% sucrose, strong sweet taste corresponds to the taste of 7% sucrose.
Alternatively to sucrose, the evaluation may be performed with another sweetener, for example, high fructose (55%) corn syrup (HFCS, containing 55% fructose and 45% glucose), erythritol, sucralose, aspartame, or acesulfame potassium (AceK).

[4] = test system: sweet sensitive panelists; assay: Ranking test, sweetness isointensity of enhancer in sweetener solution (Example 3a)
Description: Ranking Tests to Determine the Sweetness Isointensity of Sweetness Enhancers to Sucrose Solutions
For comparative ranking, samples of 0.5%, 1%, 1.5%, 7%, 8%, 9%, 10% and 11% sucrose solutions were prepared.
3a) Sweetness Isointensity of Sweetness Enhancer in Sucrose Solutions
The sensory evaluation was conducted using a ranking method. Samples at ambient temperature were randomly presented in 15 ml blind aliquots (unidentifiable by panelists). Panels consisted of 10 sweet sensitive subjects and samples were presented in 4 replications over 2 sessions. After tasting each sample, the mouth was rinsed thoroughly with water at ambient temperature prior to tasting the next sample. Panelists were presented with 7%, 8%, 9%, 10%, 11% sucrose samples and a sixth sample of 7% sucrose with a sweetness enhancer in a concentration near its sweetness detection threshold. They were asked to rank the samples from low to high with respect to perceived sweet taste. R-indices were calculated for 7% sucrose with the sweetness enhancer versus 7%, 8%, 9%, 10% or 11% sucrose.

[5] = 45 ppm in water vs 0.5% sucrose
[6] = 60 ppm in water vs 1.5% sucrose

`C[C@@H]1O[C@@H](OC2C(Oc3cc(O)c(C(=O)CCc4ccc(O)cc4)c(O)c3)OC(CO)C(O)C2O)[C@H](O)[C@H](O)[C@H]1O` (stereo in doubt) [NarDHC, -[4-[[2-O-(6-Deoxy-L-mannopyranosyl)-D-glucopyranosyl]oxy]-2,6-dihydroxyphenyl]-3-(4-hydroxyphenyl)-1-propanone] was tested, and the Result of comparison ([1]; 45 ppm in water vs 0% sucrose) was “weakly sweeter”, the Result of comparison [1, 5] was “isosweet” and the Result of comparison ([1]; 45 ppm in water vs 1% sucrose) was “less sweet”. For the same compound, the Result of comparison ([1]; 50 ppm in water vs 0.5% sucrose) was “notably sweeter”, the Result of comparison ([1]; 50 ppm in water vs 1% sucrose) was “less sweet” and the “isointensity to sucrose solution” value ([1]; 55 ppm in water) was 1 % sucrose. For the same compound, the Result of comparison ([1]; 55 ppm in water vs 0.5% sucrose) was “notably sweeter”, the Result of comparison ([1]; 55 ppm in water vs 1% sucrose) was “isosweet” and the Result of comparison ([1]; 60 ppm in water vs 1% sucrose) was “notably sweeter”. For the same compound, the Result of comparison [1, 6] was “significantly less sweet”, the “isointensity to sucrose solution” value ([2]; 45 ppm in water) was 0.5 % sucrose and the “sample sweetness (NarDHC, 45 ppm)” value [2, 5] was “Isosweet”. The “sample sweetness (NarDHC, 45 ppm)” value ([2]; 45 ppm in water vs 1% sucrose) was “less sweet”, the “sample sweetness (NarDHC, 60 ppm)” value ([2]; 60 ppm in water vs 0.5% sucrose) was “sweeter” and the “sample sweetness (NarDHC, 60 ppm)” value ([2]; 60 ppm in water vs 1% sucrose) was “sweeter”. The “sample sweetness (NarDHC, 60 ppm)” value [2, 6] was “less sweet”, the “Sensory evaluation of sweetness intensity” value (“Sensory evaluation” below) ([3]; 20 ppm in 2% sucrose) was “notably sweeter than sucrose control” and the “Sensory evaluation” value ([3]; 20 ppm in water) was “barely perceived delayed sweetness vs. 2% sucrose”. The “Sensory evaluation” value ([3]; 60 ppm in 2% sucrose) was “much sweeter than sucrose control”, the “Sensory evaluation” value ([3]; 60 ppm in water) was “very weak delayed sweetness far below 2% sucrose” and the “Sensory evaluation” value ([3]; 100 ppm in 2% sucrose) was “substantially sweeter than 2% sucrose control”. For the same compound, the “Sensory evaluation” value ([3]; 100 ppm in water) was “mild sweetness slightly below 2% sucrose control”, the “added sucrose sweetness intensity” value ([4]; 45 ppm in 7% sucrose) was 1 ° Brix and the “sweetness isointensity to sucrose” value ([4]; 45 ppm in 7% sucrose) was 8 % sucrose. For the same compound, the NarDHC sample sweetness ([4]; 45 ppm in 7% sucrose vs 7% sucrose) was “sweeter”, the NarDHC sample sweetness ([4]; 45 ppm in 7% sucrose vs 8% sucrose) was “isosweet” and the NarDHC sample sweetness ([4]; 45 ppm in 7% sucrose vs 9% sucrose) was “less sweet”. The NarDHC sample sweetness ([4]; 45 ppm in 7% sucrose vs 10% sucrose) was “less sweet”, the NarDHC sample sweetness ([4]; 45 ppm in 7% sucrose vs 11% sucrose) was “less sweet” and the “added sucrose sweetness intensity” value ([4]; 60 ppm in 7% sucrose) was 2 ° Brix. For the same compound, the “sweetness isointensity to sucrose” value ([4]; 60 ppm in 7% sucrose) was 9 % sucrose, the NarDHC sample sweetness ([4]; 60 ppm in 7% sucrose vs 7% sucrose) was “Sweeter” and the NarDHC sample sweetness ([4]; 60 ppm in 7% sucrose vs 8% sucrose) was “Sweeter”. For the same compound, the NarDHC sample sweetness ([4]; 60 ppm in 7% sucrose vs 9% sucrose) was “Isosweet”, the NarDHC sample sweetness ([4]; 60 ppm in 7% sucrose vs 10% sucrose) was “less sweet” and the NarDHC sample sweetness ([4]; 60 ppm in 7% sucrose vs 11% sucrose) was “less sweet”.
